# According to PubChem BioAssay AID256 (DTP/NCI, 2004):
# Several values for one entry are separate records, joined by “and”; a condition that tells them apart may be missing. Equal entries are not always repeated. Toxic doses and inconclusive results are not listed.
# Test system: CD2F1 mice, L1210 leukemia ip, survival T/C
# Experiment: NCI In Vivo Anticancer Drug Screen. Data for tumor model L1210 Leukemia (intraperitoneal) in CD2F1 (CDF1) mice
# Conditions: higher = longer survival
# Outline: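 Implant tumor; dose compound or vehicle; measure endpoint in both groups; report treated divided by control.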
# [1] = endpoint: mean survival time, dose: 25.0 mg/kg/injection, schedule: Q01DX009 (ip), vehicle: saline
# [2] = endpoint: mean survival time, dose: 100.0 mg/kg/injection, schedule: Q01DX009 (ip), vehicle: saline with Tween-80
# [3] = endpoint: mean survival time, dose: 100.0 mg/kg/injection, schedule: Q04DX003 (ip), vehicle: saline with Tween-80
# [4] = endpoint: mean survival time, dose: 200.0 mg/kg/injection, schedule: Q01DX009 (ip), vehicle: saline with Tween-80
# [5] = endpoint: mean survival time, dose: 200.0 mg/kg/injection, schedule: Q04DX003 (ip), vehicle: saline with Tween-80
# [6] = endpoint: mean survival time, dose: 400.0 mg/kg/injection, schedule: Q01DX009 (ip), vehicle: saline with Tween-80
# [7] = endpoint: mean survival time, dose: 400.0 mg/kg/injection, schedule: Q04DX003 (ip), vehicle: saline with Tween-80
# [8] = endpoint: mean survival time, dose: 100.0 mg/kg/injection, schedule: Q01DX009 (ip), vehicle: saline
# [9] = endpoint: mean survival time, dose: 200.0 mg/kg/injection, schedule: Q01DX009 (ip), vehicle: saline
# [10] = endpoint: mean survival time, dose: 75.0 mg/kg/injection, schedule: Q01DX001 (ip), vehicle: saline
# [11] = endpoint: mean survival time, dose: 150.0 mg/kg/injection, schedule: Q01DX001 (ip), vehicle: saline
# [12] = endpoint: mean survival time, dose: 50.0 mg/kg/injection, schedule: Q01DX009 (ip), vehicle: saline
# [13] = endpoint: mean survival time, dose: 50.0 mg/kg/injection, schedule: Q01DX009 (ip), vehicle: Klucel (hydroxypropylcellulose) (HPC)
# [14] = endpoint: mean survival time, dose: 100.0 mg/kg/injection, schedule: Q01DX009 (ip), vehicle: Klucel (hydroxypropylcellulose) (HPC)
# [15] = endpoint: mean survival time, dose: 200.0 mg/kg/injection, schedule: Q01DX009 (ip), vehicle: Klucel (hydroxypropylcellulose) (HPC)
# [16] = endpoint: mean survival time, dose: 100.0 mg/kg/injection, schedule: Q04DX002 (ip), vehicle: saline with Tween-80
# [17] = endpoint: mean survival time, dose: 200.0 mg/kg/injection, schedule: Q04DX002 (ip), vehicle: saline with Tween-80
# [18] = endpoint: mean survival time, dose: 400.0 mg/kg/injection, schedule: Q04DX002 (ip), vehicle: saline with Tween-80
# [19] = endpoint: mean survival time, dose: 100.0 mg/kg/injection, schedule: Q04DX003 (ip), vehicle: saline
# [20] = endpoint: mean survival time, dose: 200.0 mg/kg/injection, schedule: Q04DX003 (ip), vehicle: saline
structure (smiles),measurement,setting,value
CN1CCC(=C(C#N)c2ccccc2)CC1,T/C,"endpoint: mean survival time, dose: 12.5 mg/kg/injection, schedule: Q01DX009 (ip), vehicle: saline",100 % of control
same,T/C,[1],102 % of control
COC(=O)CC(=O)c1ccc(OC(C)C)cc1,T/C,[2],100 % of control
same,T/C,[3],87 % of control
same,T/C,[4],107 % of control
same,T/C,[5],90 % of control
same,T/C,[6],104 % of control
same,T/C,[7],87 % of control
CN1CCCC(OC(=O)N(C)C)C1 (stereo not drawn),T/C,[8],96 % of control
same,T/C,[9],98 % of control
O=C1N(O)C2(CCCCC2)/C(=N/O)C12CCCCC2,T/C,[10],100 % of control
same,T/C,[11],94 % of control
same,T/C,"endpoint: mean survival time, dose: 300.0 mg/kg/injection, schedule: Q01DX001 (ip), vehicle: saline",94 % of control
[O-][n+]1cc(-c2ccccc2)cc2ccccc21,T/C,"endpoint: mean survival time, dose: 50.0 mg/kg/injection, schedule: Q04DX003 (ip), vehicle: saline with Tween-80",97 % of control
same,T/C,[3],97 % of control
O=c1[nH]cccc1O,T/C,"endpoint: median survival time, dose: 50.0 mg/kg/injection, schedule: Q01DX009 (ip), vehicle: saline with Tween-80",103 % of control and 104 % of control and 108 % of control
same,T/C,"endpoint: median survival time, dose: 62.5 mg/kg/injection, schedule: Q01DX009 (ip), vehicle: saline with Tween-80",102 % of control
same,T/C,"endpoint: median survival time, dose: 66.7 mg/kg/injection, schedule: Q03HX027 (ip), vehicle: saline with Tween-80",96 % of control
same,T/C,"endpoint: median survival time, dose: 125.0 mg/kg/injection, schedule: Q01DX009 (ip), vehicle: saline with Tween-80",113 % of control
same,T/C,"endpoint: median survival time, dose: 133.0 mg/kg/injection, schedule: Q03HX027 (ip), vehicle: saline with Tween-80",103 % of control
same,T/C,"endpoint: median survival time, dose: 250.0 mg/kg/injection, schedule: Q01DX009 (ip), vehicle: saline with Tween-80",116 % of control
same,T/C,"endpoint: median survival time, dose: 266.0 mg/kg/injection, schedule: Q03HX027 (ip), vehicle: saline with Tween-80",155 % of control
Nc1[nH]c(=S)[nH]c(=O)c1N,T/C,"endpoint: mean survival time, dose: 6.25 mg/kg/injection, schedule: Q04DX002 (ip), vehicle: saline with Tween-80",102 % of control
same,T/C,"endpoint: mean survival time, dose: 12.5 mg/kg/injection, schedule: Q04DX002 (ip), vehicle: saline with Tween-80",102 % of control
same,T/C,"endpoint: mean survival time, dose: 25.0 mg/kg/injection, schedule: Q04DX002 (ip), vehicle: saline with Tween-80",102 % of control
NC(CSC(c1ccccc1)(c1ccccc1)c1ccc(F)cc1)C(=O)O (stereo not drawn),T/C,[1],181 % of control
same,T/C,[12],192 % of control
CC(C)OC(=O)Nc1ccc(F)cc1,T/C,"endpoint: mean survival time, dose: 100.0 mg/kg/injection, schedule: Q01DX009 (ip), vehicle: other",94 % of control
same,T/C,"endpoint: mean survival time, dose: 200.0 mg/kg/injection, schedule: Q01DX009 (ip), vehicle: other",91 % of control
same,T/C,"endpoint: mean survival time, dose: 400.0 mg/kg/injection, schedule: Q01DX009 (ip), vehicle: other",100 % of control
O=[N+]([O-])c1ccc(O)c(C[P+](c2ccccc2)(c2ccccc2)c2ccccc2)c1,T/C,[2],93 % of control
same,T/C,[4],95 % of control
same,T/C,[6],102 % of control
COC(=O)c1cn[nH]c1/N=N/N(C)C,T/C,"endpoint: mean survival time, dose: 88.0 mg/kg/injection, schedule: Q01DX009 (ip), vehicle: other",175 % of control
same,T/C,"endpoint: mean survival time, dose: 133.0 mg/kg/injection, schedule: Q01DX009 (ip), vehicle: other",164 % of control
same,T/C,"endpoint: mean survival time, dose: 300.0 mg/kg/injection, schedule: Q01DX009 (ip), vehicle: other",88 % of control
O=C(NCCCC1C2CCC(C2)C1CNC(=O)Nc1cccc(Cl)c1)Nc1cccc(Cl)c1 (stereo not drawn),T/C,[2],93 % of control
same,T/C,[4],93 % of control
same,T/C,[6],89 % of control
COC(=O)NC(N)=Nc1ccccc1,T/C,"endpoint: mean survival time, dose: 12.5 mg/kg/injection, schedule: Q01DX009 (ip), vehicle: saline with Tween-80",96 % of control
same,T/C,"endpoint: mean survival time, dose: 25.0 mg/kg/injection, schedule: Q01DX009 (ip), vehicle: saline with Tween-80",87 % of control
COc1cccc2c1C(=O)c1c(O)c3c(c(O)c1C2=O)C[C@@](O)(/C(C)=N\O)C[C@@H]3OC1CC(N)C(O)C(C)O1 (stereo partly drawn),T/C,"endpoint: mean survival time, dose: 3.13 mg/kg/injection, schedule: Q01DX009 (ip), vehicle: water",108 % of control
same,T/C,"endpoint: mean survival time, dose: 6.25 mg/kg/injection, schedule: Q01DX009 (ip), vehicle: water",112 % of control
same,T/C,"endpoint: mean survival time, dose: 25.0 mg/kg/injection, schedule: Q01DX009 (ip), vehicle: water",98 % of control
CCCCC(CC(=O)O)c1ccc(Cl)cc1 (stereo not drawn),T/C,[3],95 % of control
same,T/C,[5],101 % of control
c1ccc(NC2=NCCO2)cc1,T/C,[3],93 % of control
same,T/C,[5],98 % of control
COc1cc2c(cc1OC)C(Cc1ccccc1)=NCC2,T/C,"endpoint: mean survival time, dose: 50.0 mg/kg/injection, schedule: Q01DX009 (ip), vehicle: saline sonified",101 % of control
same,T/C,"endpoint: mean survival time, dose: 100.0 mg/kg/injection, schedule: Q01DX009 (ip), vehicle: saline sonified",101 % of control
same,T/C,[3],94 % of control
same,T/C,[5],92 % of control
NCCCCOc1ccc([N+](=O)[O-])cc1Cl,T/C,[10],100 % of control
same,T/C,[11],102 % of control
O=C1CCCCC1C1(O)C(=O)Nc2ccccc21 (stereo not drawn),T/C,"endpoint: mean survival time, dose: 50.0 mg/kg/injection, schedule: Q01DX009 (ip), vehicle: saline with Tween-80",91 % of control
same,T/C,[2],95 % of control
same,T/C,[4],87 % of control
CCN(CC)CCOC(=O)Cc1cccc2c(=O)cc(-c3ccccc3)oc12,T/C,"endpoint: mean survival time, dose: 12.5 mg/kg/injection, schedule: Q01DX009 (ip), vehicle: Klucel (hydroxypropylcellulose) (HPC)",95 % of control
same,T/C,"endpoint: mean survival time, dose: 25.0 mg/kg/injection, schedule: Q01DX009 (ip), vehicle: Klucel (hydroxypropylcellulose) (HPC)",95 % of control
same,T/C,[1],95 % of control
same,T/C,[13],92 % of control
same,T/C,[12],111 % of control
same,T/C,[14],89 % of control
same,T/C,[8],96 % of control
same,T/C,[15],87 % of control
same,T/C,[9],111 % of control
same,T/C,"endpoint: mean survival time, dose: 400.0 mg/kg/injection, schedule: Q01DX009 (ip), vehicle: Klucel (hydroxypropylcellulose) (HPC)",93 % of control
NC(CSC1(c2ccc(Cl)cc2)c2ccccc2-c2ccccc21)C(=O)O (stereo not drawn),T/C,[1],100 % of control
same,T/C,[12],96 % of control
same,T/C,[8],96 % of control
OCC1OC(Sc2cc(Cl)ccc2Cl)C(O)C(O)C1O (stereo not drawn),T/C,"endpoint: mean survival time, dose: 100.0 mg/kg/injection, schedule: Q01DX001 (ip), vehicle: saline",103 % of control
same,T/C,"endpoint: mean survival time, dose: 200.0 mg/kg/injection, schedule: Q01DX001 (ip), vehicle: saline",100 % of control
same,T/C,"endpoint: mean survival time, dose: 400.0 mg/kg/injection, schedule: Q01DX001 (ip), vehicle: saline",100 % of control
CN(CC(=O)O)C(=O)c1cc2ccccc2[nH]1,T/C,"endpoint: mean survival time, dose: 37.5 mg/kg/injection, schedule: Q04DX002 (ip), vehicle: saline with Tween-80",101 % of control
same,T/C,"endpoint: mean survival time, dose: 75.0 mg/kg/injection, schedule: Q04DX002 (ip), vehicle: saline with Tween-80",89 % of control
same,T/C,"endpoint: mean survival time, dose: 150.0 mg/kg/injection, schedule: Q04DX002 (ip), vehicle: saline with Tween-80",93 % of control
O=C(O)c1cccc2c1oc1ccccc12,T/C,[16],94 % of control
same,T/C,[17],94 % of control
same,T/C,[18],102 % of control
CCC1C(=O)OCc2c1cc1n(c2=O)C(CC)c2c-1nc1ccccc1c2Cl (stereo not drawn),T/C,[19],98 % of control
same,T/C,[20],95 % of control
same,T/C,"endpoint: mean survival time, dose: 400.0 mg/kg/injection, schedule: Q04DX003 (ip), vehicle: saline",90 % of control
C[N+]1(C)CCS(=O)(=O)CC1,T/C,[3],94 % of control
same,T/C,[5],95 % of control
same,T/C,[7],86 % of control
OC1CCCN(c2c3ccccc3nc3ccccc23)C1 (stereo not drawn),T/C,[16],100 % of control
same,T/C,[17],92 % of control
same,T/C,[18],100 % of control
Cc1cc(C)c(S(=O)(=O)n2ccnc2)c(C)c1,T/C,[13],94 % of control
same,T/C,[14],94 % of control
same,T/C,[15],105 % of control
Cn1c(C[N+](C)(C)C)cc2ccccc21,T/C,[12],90 % of control
same,T/C,[8],93 % of control
NCc1ncn[nH]1,T/C,[19],100 % of control
same,T/C,[20],96 % of control
Nc1ccc2c(c1)C(=O)c1ccc(N)cc1C2=O,T/C,"endpoint: mean survival time, dose: 100.0 mg/kg/injection, schedule: Q01DX001 (ip), vehicle: saline with Tween-80",88 % of control
same,T/C,"endpoint: mean survival time, dose: 200.0 mg/kg/injection, schedule: Q01DX001 (ip), vehicle: saline with Tween-80",96 % of control
same,T/C,"endpoint: mean survival time, dose: 400.0 mg/kg/injection, schedule: Q01DX001 (ip), vehicle: saline with Tween-80",88 % of control
